# In patent US6303626A, “Pharmaceutical formulations in dry form for the oral administration of a cyclic quaternary ammonium compound” (Sanofi-Synthelabo, priority 1997, dated 2001):
# Read-outs that look alike come from different tables or passages of the source.
# Columns and labels:
# [1] = Solubility in different media / solvents; type: physicochemical; settings: dmso, organic solvent or mixture; read-out: Solubility in dimethyl sulfoxide (DMSO)
# in vivo = settings: rat, 0.6% aqueous solution of compound A in methyl cellulose, read-out: Estimated absorption
# Text: In this model, the permeability to compound A dissolved in dimethyl sulfoxide (DMSO) is 3.4.10^-7 cm/s. Furthermore, studies performed on the rat with a 0.6% aqueous solution of compound A in methyl cellulose have shown that its estimated absorption is less than 1%.
# [2] = Solubility of compound A in water at the saturation point, 24 h, room temperature, UV spectrometry; type: physicochemical; settings: for solubility at 24 h: water, room temperature, read-out: Concentration of compound A (solubility in water at saturation)
# Text: 1. Solubility of Compound A
# Caco-2 cells = type: in vitro ADME; settings: polysorbate 80 added to a solution of compound A in the cell culture medium
# Text: This line is conventionally used for evaluating the ability of compounds to permeate the epithelium (Crit. Rev. Ther. Drug Carrier System. 1991, 8 (4), 105-330).
# 2. Evaluation of the Intestinal Transepithelial Passage of Compound A
# Caco-2 cells are inoculated onto microporous polycarbonate filters covered with collagen. The cellular monolayer formed on the filter then makes it possible to separate an apical compartment (imitating the intestinal lumen) from a basal compartment (imitating the blood circulation).
# The composition containing the compound to be studied is then placed on the apical side and the passage of this compound, dispersed or solubilized in Hank's medium, through this cellular barrier is evaluated by measuring the kinetics of its appearance on the basal side. This aqueous medium, of pH 6.5, has the following composition: NaCl=8.0 g/l; KCl=0.4 g/l; CaCl2 =0.19 g/l; MgCl2 =0.1 g/l; MgSO4 =0.1 g/l; Na2 HPO4 =0.09 g/l; KH2 PO4 =0.06 g/l; NaHCO3 =0.35 g/l; glucose=1 g/l; phenol red=0.01 g/l. […]
# Various non-ionic surfactants or agents said to improve absorption, such as a C8 -C10 fatty acid or one of its derivatives, were added to the formulation described above, placed in Hank's medium, and the relative rate of intestinal transepithelial passage of compound A in these formulations was measured.
smiles,measurement,setting,value
"CC(C)Oc1cccc(CC(=O)N2CCC[C@](CC[N+]34CCC(c5ccccc5)(CC3)CC4)(c3ccc(Cl)c(Cl)c3)C2)c1 [compound A, (S)-1-{2-[3-(3,4-dichlorophenyl)-1-(3-iso-propoxyphenylacetyl)piperidin-3-yl]ethyl}-4-phenyl-1-azoniabicyclo[2.2.2]octane]",solubility,[1],168000 µg/mL
same,Fa,in vivo,< 1%
same,"Solubility in water, dependence on pH",[2]; pH 1 to 9,low and not dependent on the pH
same,solubility at 24 h,[2]; pH 1,310 µg/mL
same,solubility at 24 h,[2]; pH 3,310 µg/mL
same,solubility at 24 h,[2]; pH 5,310 µg/mL
same,solubility at 24 h,[2]; pH 7,290 µg/mL
same,solubility at 24 h,[2]; pH 9,310 µg/mL
same,Effect of addition of polysorbate 80 on transepithelial passage,Caco-2 cells,substantially improves the transepithelial passage
